In brackets after ≈: the same amount, converted by molar mass. Residues, ends and D or L forms follow the SMILES beside them. *: point of attachment. Decanoyl = CCCCCCCCCC(=O)*; Octanoyl = CCCCCCCC(=O)*
Key:
[1] = tested on: human breast cancer cells (MCF-7 line, ATCC); test: MTT cytotoxicity assay; type: cell-based; settings: IC50 against HaCaT divided by IC50 for MCF-7
Description: (§1) The prepared plates were further incubated for 48 h. […] The control cell viability was assumed to be 100%. Three independent experiments were carried out in three repetitions.

[2] = tested on: human prostate cancer cells (PC3 line, ATCC); test: MTT cytotoxicity assay; type: cell-based; settings: IC50 against HaCaT divided by IC50 for PC3
Description: as §1

[3] = tested on: C. albicans PCM2566; type: cell-based, Candida albicans; settings: RPMI-1640 with MOPS and 2% glucose, inoculum 5 × 10^3 CFU/mL, 24 h, 35 °C, absorbance 600 nm, triplicate
Description: (§2) The evaluation of the antimicrobial activity of the synthesized lipopeptides was performed against the following reference bacterial and fungal strains: Staphylococcus aureus PCM 1650, Staphylococcus aureus PCM 2054, Staphylococcus epidermidis PCM 521, Staphylococcus epidermidis PCM 2118, Escherichia coli PCM 2057, Candida albicans PCM 2566, Candida glabrata CCM 8270, Candida krusei CCM 8271, Candida parapsilosis CCM 8260.
(§3) For the initial cultivation of the bacteria and fungi, Luria-Bertani broth (LB, Biomaxima, Lublin, Poland) and Sabouraud Dextrose broth (SB, Biomaxima, Lublin, Poland) were used, respectively. Antimicrobial properties of the compounds were analyzed through the determination of MIC (minimal inhibitory concentrations) by my means of the serial micro-dilution technique according to the guidelines of Clinical & Laboratory Standard Institute (CLSI) established for aerobic bacteria and yeasts.
(§4) According to the procedures, Mueller–Hinton broth (MHB) was used as the working medium for the analysis of the bacterial susceptibility, while RPMI-1640 (with L-glutamine, without sodium bicarbonate) growth medium buffered with MOPS (morpholinepropanesulfonic acid) and supplemented with 2% glucose was used for the experiments with the fungi.
(§5) The experiments were carried out for 24 h at 37 and 35 °C for the bacteria and fungi, respectively. Then, the absorbance was measured at 600 nm for each well of the 96-well plate using a microplate reader (Sunrise TM, Tecan Trading AG, Männedorf, Switzerland). Based on the obtained results, the degree of inhibition of the growth of microorganisms (expressed in %) in the presence of the tested compounds range was determined with respect to the control probes. Inoculated wells without peptide were treated as a positive control (100% growth), and the wells containing working medium only were defined as a negative control (0% growth). All measurements were repeated in triplicate.

[4] = tested on: C. parapsilosis CCM 8260; type: cell-based, Candida parapsilosis; settings: RPMI-1640 with MOPS and 2% glucose, inoculum 5 × 10^3 CFU/mL, 24 h, 35 °C, absorbance 600 nm, triplicate
Description: as §2, §3, §4, §5

[5] = target: POPG LUVs; test: Isothermal titration calorimetry, binding to POPG LUVs; settings: ITC, 25 °C
Description: (§6) Large unilamellar vesicles (LUV) were obtained by extrusion of MLV liposomes through polycarbonate membrane filters with a pore diameter of 100 nm (Whatman International Ltd., Kent, UK) using a mini-extruder (Avanti Polar Lipids, Inc., Alabaster, AL, USA).
The thermodynamic parameters of the interactions of the lipopeptides with POPG and POPC liposomes were determined by isothermal titration calorimetry (ITC). Measurements were performed at 25 °C using an AutoITC microcalorimeter (MicroCal Inc., Northampton, MA, USA) with a 1.4491 mL sample and reference cells. The experiment consisted in the titration of a buffered peptide solution with a concentration of 0.05 and/or 0.07 mM with a buffered solution containing POPG or POPC LUVs with a lipid concentration of 1.3 and 1.8 mM (10.02 µL; 29 injections, 2 µL for the first injection only), as it was described previously. The result of the titration was a thermogram showing a series of peaks corresponding to the titration steps. A titration curve was obtained after integration of the peak areas. The obtained isotherms were fitted to the “one set of sites” or “two sets of sites” models available in the ORIGIN 7.0 (MicroCal Inc., Northampton, MA, USA), which made it possible to determine the enthalpy (ΔH), the binding constant (KITC) and the stoichiometry (N) of the interactions between the lipopeptide and the lipids. The following formula was used to calculate the entropy change (ΔS) and the Gibbs free energy (ΔG): ΔG=−RTln(55.5KITC)=ΔH−TΔS where: factor 55.5 is the molar concentration of water, R is the gas constant (1.986 cal·mol^−1·K^−1), and T is the absolute temperature.

[6] = target: POPC LUVs; test: Isothermal titration calorimetry, binding to POPC LUVs; settings: ITC, 25 °C, 1.3 mM POPC to 0.05 mM C10-LL-I
Description: as §6
The thermodynamic parameters of the interactions of the lipopeptides with POPG and POPC liposomes were determined by isothermal titration calorimetry (ITC). Measurements were performed at 25 °C using an AutoITC microcalorimeter (MicroCal Inc., Northampton, MA, USA) with a 1.4491 mL sample and reference cells. The experiment consisted in the titration of a buffered peptide solution with a concentration of 0.05 and/or 0.07 mM with a buffered solution containing POPG or POPC LUVs with a lipid concentration of 1.3 and 1.8 mM (10.02 µL; 29 injections, 2 µL for the first injection only), as it was described previously. The result of the titration was a thermogram showing a series of peaks corresponding to the titration steps. A titration curve was obtained after integration of the peak areas. The obtained isotherms were fitted to the “one set of sites” or “two sets of sites” models available in the ORIGIN 7.0 (MicroCal Inc., Northampton, MA, USA), which made it possible to determine the enthalpy (ΔH), the binding constant (KITC) and the stoichiometry (N) of the interactions between the lipopeptide and the lipids. […]

[7] = tested on: S. epidermidis PCM521; type: cell-based, Staphylococcus epidermidis; settings: Mueller–Hinton broth, inoculum 5 × 10^5 CFU/mL, 24 h, 37 °C, absorbance 600 nm, triplicate
Description: as §2, §3, §4, §5

[8] = tested on: S. epidermidis PCM2118; type: cell-based, Staphylococcus epidermidis; settings: Mueller–Hinton broth, inoculum 5 × 10^5 CFU/mL, 24 h, 37 °C, absorbance 600 nm, triplicate
Description: as §2, §3, §4, §5

[9] = tested on: POPG liposomes; test: CD, α-helix content in POPG liposomes; type: physicochemical; settings: 25 °C, peptide 0.15 mg/mL, 1.3 mM POPG; for α-Helix percentage, POPG: from ellipticity at 222 nm
Description: as §6
(§7) CD experiments were carried out at 25 °C using a Jasco J-815 spectropolarimeter in the wavelength range 185–260 nm. The concentration of the lipopeptides was 0.15 mg/mL. The CD spectra were recorded in water, PBS (pH 7.4), 1.3 mM POPC and 1.3 mM POPG. The results are plotted as the mean molar ellipticity per one amino acid residue (MRME, deg cm^2 dmol^−1) as a function of the wavelength (nm). Additionally, we performed a conformational analysis of the selected compounds in the presence of S. aureus cells. […] The mixtures were then incubated for 2 h before recording the CD spectra.
(§8) The percentage of the α-helical structure was calculated based on the mean molar ellipticity at 222 nm using the formula: fH=θ222−3000/−36000−3000·100% where θ222 corresponds to the value of the mean molar ellipticity at a wavelength of 222 nm.

[10] = tested on: E. coli PCM2057; type: cell-based, Escherichia coli; settings: Mueller–Hinton broth, inoculum 5 × 10^5 CFU/mL, 24 h, 37 °C, absorbance 600 nm, triplicate
Description: as §2, §3, §4, §5

[11] = tested on: S. aureus PCM1650; type: cell-based, Staphylococcus aureus; settings: Mueller–Hinton broth, inoculum 5 × 10^5 CFU/mL, 24 h, 37 °C, absorbance 600 nm, triplicate
Description: as §2, §3, §4, §5

[12] = tested on: S. aureus PCM2054; type: cell-based, Staphylococcus aureus; settings: Mueller–Hinton broth, inoculum 5 × 10^5 CFU/mL, 24 h, 37 °C, absorbance 600 nm, triplicate
Description: as §2, §3, §4, §5

[13] = tested on: C. krusei CCM8271; type: cell-based, Candida krusei; settings: RPMI-1640 with MOPS and 2% glucose, inoculum 5 × 10^3 CFU/mL, 24 h, 35 °C, absorbance 600 nm, triplicate
Description: as §2, §3, §4, §5

[14] = tested on: C. glabrata CCM8270; type: cell-based, Candida glabrata; settings: RPMI-1640 with MOPS and 2% glucose, inoculum 5 × 10^3 CFU/mL, 24 h, 35 °C, absorbance 600 nm, triplicate
Description: as §2, §3, §4, §5

[15] = tested on: POPC liposomes; test: CD, α-helix content in POPC liposomes; type: physicochemical; settings: 25 °C, peptide 0.15 mg/mL, 1.3 mM POPC; for α-Helix percentage, POPC: from ellipticity at 222 nm
Description: as §6, §7, §8

[16] = tested on: S. aureus cells; test: TEM of S. aureus cells treated with lipopeptide; type: cell-based, Staphylococcus aureus; settings: C8-LL-I at 25 µg/mL, 5 × 10^5 CFU/mL, incubated overnight at 37 °C
Description: The cells were centrifuged (8000 rpm, 15 min) and resuspended in fresh media to obtain a high-density cell suspension (5 × 10^5 CFU/mL). […] Afterward, the cells were centrifuged (8000 rpm, 15 min) and washed three times with PBS. The bacterial cells were fixed with 2.5% glutaraldehyde buffered at pH 6.5 with 0.1 M sodium cacodylate (Polysciences, Warrington, PA, USA) for 6 h at room temperature, as described earlier [52]. Additional fixation was performed with a 1% osmium tetroxide solution (Polysciences, Warrington, PA, USA) for 2 h at 4 °C. The cells were centrifuged and resuspended in 0.1 M cacodylate buffer, centrifuged again and dehydrated with ethanol. The bacteria were embedded in Epon 812 resin (Sigma-Aldrich, Darmstadt, Germany) at room temperature. A Leica UC7 ultramicrotome (Wetzlar, Germany) was used to obtain ultra-thin sections (55 nm). As contrasting agents, lead citrate and uranyl acetate were used. Cells were visualized using a Tecnai Spirit BioTWIN (EFI, Hillsboro, OR, USA) microscope at 120 kV.

[17] = Dynamic light scattering of lipopeptide assemblies; type: physicochemical; settings: DLS, sonicated 10 min, incubated 1 h, 90° side scatter
Description: The hydrodynamic diameters of the lipopeptide nanoaggregates were examined by the Litesizer 500 (Anton-Paar GmbH, Graz, Austria) at 25 °C. The measurements were carried out at various lipopeptide concentrations ranging from 0.5 to 2 mM and from 0.25 to 2 mM, in water and PBS, respectively. Two-fold serial dilutions were used to obtain the sequential concentrations. Each sample was sonicated for 10 min followed by incubation for 1 h at 25 °C and transferred to the polystyrene cuvette. The detector was positioned at a side scatter position (90°). The analysis of the obtained results and report generation was performed with KalliopeTM software (Anton-Paar GmbH, Graz, Austria).

[18] = 0.05 or 0.07 mM peptide titrated with 1.3 or 1.8 mM POPG LUVs, one set of sites model (C10-LL-I: two sets of sites, first line)

| Structure (SMILES) | SI MCF-7 [1] | SI PC3 [2] | MIC, C. albicans PCM2566 [3] | MIC, C. parapsilosis CCM 8260 [4] | pKITC, POPG [5, 18] | MIC, S. epidermidis PCM521 [7] | MIC, S. epidermidis PCM2118 [8] | θ222/θ208, POPG [9] | α-Helix percentage, POPG [9] | MIC, E. coli PCM2057 [10] | MIC, S. aureus PCM1650 [11] | MIC, S. aureus PCM2054 [12] | MIC, C. krusei CCM8271 [13] | MIC, C. glabrata CCM8270 [14] | θ222/θ208, POPC [15] | α-Helix percentage, POPC [15] | further results |
| --- | --- | --- | --- | --- | --- | --- | --- | --- | --- | --- | --- | --- | --- | --- | --- | --- | --- |
| CCCCCCCCCC(=O)N[C@H](C(=O)N[C@@H](CC(N)=O)C(=O)N[C@@H](Cc1c[nH]c2ccccc12)C(=O)N[C@@H](CCCCN)C(=O)N[C@@H](CCCCN)C(=O)N[C@H](C(=O)N[C@@H](CC(C)C)C(=O)NCC(=O)N[C@@H](CCCCN)C(=O)N[C@H](C(=O)N[C@H](C(=O)N[C@@H](CCCCN)C(=O)N[C@H](C(=O)N[C@@H](C)C(=O)N[C@@H](CCCCN)C(N)=O)C(C)C)[C@@H](C)CC)[C@@H](C)CC)C(C)C)C(C)C [C10-LL-I] (Decanoyl-VNWKKVLGKIIKVAK-NH2) | 1.34 | 0.84 | >50 µg/mL | 6.25 µg/mL (≈ 3.33 µM) | 6.02 ± 1.09 | 12.5 µg/mL (≈ 6.66 µM) | 6.25 µg/mL (≈ 3.33 µM) | 0.98 | 19% | 25 µg/mL (≈ 13.3 µM) | 12.5 µg/mL (≈ 6.66 µM) | 12.5 µg/mL (≈ 6.66 µM) | 12.5 µg/mL (≈ 6.66 µM) | 25 µg/mL (≈ 13.3 µM) | 0.88 | 40% | pKITC, POPG ([5]; two sets of sites model, second line): 4.69 ± 0.54; pKITC, POPC [6]: 4.42 ± 0.24 |
| CCCCCCCC(=O)N[C@H](C(=O)N[C@@H](CC(N)=O)C(=O)N[C@@H](Cc1c[nH]c2ccccc12)C(=O)N[C@@H](CCCCN)C(=O)N[C@@H](CCCCN)C(=O)N[C@H](C(=O)N[C@@H](CC(C)C)C(=O)NCC(=O)N[C@@H](CCCCN)C(=O)N[C@H](C(=O)N[C@H](C(=O)N[C@@H](CCCCN)C(=O)N[C@H](C(=O)N[C@@H](C)C(=O)N[C@@H](CCCCN)C(N)=O)C(C)C)[C@@H](C)CC)[C@@H](C)CC)C(C)C)C(C)C [C8-LL-I] (Octanoyl-VNWKKVLGKIIKVAK-NH2) | 1.42 | 0.76 | >50 µg/mL | 12.5 µg/mL (≈ 6.76 µM) | 3.98 ± 0.06 | 6.25 µg/mL (≈ 3.38 µM) | 6.25 µg/mL (≈ 3.38 µM) | 0.90 | 27% | 25 µg/mL (≈ 13.5 µM) | 12.5 µg/mL (≈ 6.76 µM) | 12.5 µg/mL (≈ 6.76 µM) | 12.5 µg/mL (≈ 6.76 µM) | 25 µg/mL (≈ 13.5 µM) | 0.85 | 48% | effect on S. aureus cells (TEM) [16]: induced thinning of the membrane and its disintegration; hydrodynamic diameter, peak of highest scattering intensity ([17]; 0.25 mM in PBS pH 7.4, 25 °C): 3360 ± 165 nm; hydrodynamic diameter, peak of highest scattering intensity ([17]; 0.5 mM salt-free aqueous solution, 25 °C): 404 ± 37 nm; hydrodynamic diameter ([17]; 2 mM in PBS pH 7.4, 25 °C): 3844 ± 1031 nm |
